The target of data set [1] is human BRD4 first bromodomain (BDI_K57-E168) (Homo sapiens (Human), UniProt O60885). The data set is described as follows: TR-FRET bromodomain binding assay, BRD4 first bromodomain.
Data set [2] can be described thus: Mouse liver microsome stability assay. It is filed as in vitro ADME. Conditions: male, CD1, mouse, microsomes, pH 7.4. (Microsomes from liver hold many membrane-bound enzymes, among them those of drug oxidation.)
For data set [3], the target named is human BRD4 second bromodomain (BDII_E352-M457) (Homo sapiens (Human), UniProt O60885). The data set is described as follows: TR-FRET bromodomain binding assay, BRD4 second bromodomain. In general terms: Time-resolved FRET reads energy transfer from a long-lived donor to a nearby acceptor.
Data set [4] is described as follows: Human liver microsome stability assay. Conditions: both sexes, human, microsomes, pH 7.4. Type of data set: in vitro ADME.
Data set [5] relates to breast cancer cell line MX-1. The data set is described as follows: MX-1 cell line proliferation assay. Type of data set: cell-based, human. The following applies: Homo sapiens, MX1, 72 h; MX-1 cells, 3-day proliferation, Cell Titer Glo; read-out: Cellular proliferation: EC50. Background: In ATP-based viability assays light output follows the ATP content of the culture.
A short description of data set [6]: Rat liver microsome stability assay. Type of data set: in vitro ADME. Conditions: rat liver microsomes (male Sprague-Dawley), 0.5 μM test compound, 0.25 mg/mL microsomal protein, pH 7.4, 37° C.; read-out: Stability in rat liver microsomes (t1/2 in minutes).

The term Ki denotes the dissociation constant of the complex between target and ligand, obtained from inhibition or displacement. In the case of `Cn1cc(-c2cc(S(C)(=O)=O)ccc2OC2CCCCCC2)c2cc[nH]c2c1=O` [Example 220, 4-[2-(cycloheptyloxy)-5-(methylsulfonyl)phenyl]-6-methyl-1,6-dihydro-7H-pyrrolo[2,3-c]pyridin-7-one], the Ki in data set [1] was found to be 2.8 nM; in data set [3] it was 1.2 nM. Besides, the figures for the half-life at 0.5 μM in data set [2], in data set [4] and in data set [6] were 4 min, 5 min and 5 min, respectively. Also, the EC50 in data set [5] is 21.3 nM.
Turning to `Cn1cc(-c2cc(C(=O)O)ccc2Oc2ccccc2)c2cc[nH]c2c1=O` [Example 10, 3-(6-methyl-7-oxo-6,7-dihydro-1H-pyrrolo[2,3-c]pyridin-4-yl)-4-phenoxybenzoic acid], the figures for the Ki in data set [1] and in data set [3] were 15.4 nM and 8.6 nM, respectively. Further, the half-life at 0.5 μM in data set [2] was above 120 min; in data set [4] it was 78 min; in data set [6], above 120 min. Also, in data set [5], the EC50 is above 3000 nM.
Regarding `Cn1cc(-c2cc(S(C)(=O)=O)ccc2Oc2ccc(F)cc2F)c2cc(C(N)=O)[nH]c2c1=O` [Example 252, 4-[2-(2,4-difluorophenoxy)-5-(methylsulfonyl)phenyl]-6-methyl-7-oxo-6,7-dihydro-1H-pyrrolo[2,3-c]pyridine-2-carboxamide], the Ki in data set [1] came to 10.1 nM; in data set [3], 1.7 nM. Further, the half-life at 0.5 μM in data set [2] is above 120 min; in data set [4] it was 68 min; in data set [6] it was above 120 min. Further, in data set [5], the EC50 came to 246 nM.
`CNS(=O)(=O)Nc1ccc(OC2CCC(F)(F)CC2)c(-c2cn(C)c(=O)c3[nH]ccc23)c1` [Example 104, N-{4-[(4,4-difluorocyclohexyl)oxy]-3-(6-methyl-7-oxo-6,7-dihydro-1H-pyrrolo[2,3-c]pyridin-4-yl)phenyl}-N′-methylsulfuric diamide]: the values for the Ki in data set [1] and in data set [3] were 4.4 nM and 17.9 nM, respectively. Moreover, the results for the half-life at 0.5 μM in data set [2], in data set [4] and in data set [6] were 7 min, 27 min and 8 min, respectively. Also, the EC50 in data set [5] was 65.3 nM.
As for `Cn1cc(-c2cc(S(C)(=O)=O)ccc2Oc2ccc(F)cc2F)c2cc(CN3CCOCC3)[nH]c2c1=O` [Example 280, 4-[2-(2,4-difluorophenoxy)-5-(methylsulfonyl)phenyl]-6-methyl-2-(morpholin-4-ylmethyl)-1,6-dihydro-7H-pyrrolo[2,3-c]pyridin-7-one], the figures for the Ki in data set [1] and in data set [3] were 19.2 nM and 92 nM, respectively. Further, the values for the half-life at 0.5 μM in data set [2], in data set [4] and in data set [6] were 36 min, 17 min and 84 min, respectively. The EC50 in data set [5] came to 292 nM.
`Cn1cc(-c2cc(C(=O)NCc3ccccn3)ccc2Oc2ccc(F)cc2F)c2cc[nH]c2c1=O` [Example 129, 4-(2,4-difluorophenoxy)-3-(6-methyl-7-oxo-6,7-dihydro-1H-pyrrolo[2,3-c]pyridin-4-yl)-N-(pyridin-2-ylmethyl)benzamide]: the Ki in data set [1] came out at 37.9 nM; in data set [3], 45.6 nM. For the same compound, the half-life at 0.5 μM in data set [2] worked out at 12 min; in data set [4], 54 min; in data set [6], 38 min. Further, the EC50 in data set [5] came to 118 nM.
Turning to `CCCS(=O)(=O)Nc1ccc(Oc2c(F)cc(F)cc2F)c(-c2cn(C)c(=O)c3[nH]ccc23)c1` [Example 94, N-[3-(6-methyl-7-oxo-6,7-dihydro-1H-pyrrolo[2,3-c]pyridin-4-yl)-4-(2,4,6-trifluorophenoxy)phenyl]propane-1-sulfonamide], the figures for the Ki in data set [1] and in data set [3] were 16.2 nM and 10 nM, respectively. The half-life at 0.5 μM in data set [2] was 25 min; in data set [4] it was 47 min; in data set [6], 28 min. Further, in data set [5], the EC50 is 110 nM.
Consider `CCS(=O)(=O)C(C)(C)c1ccc(Oc2ccc(F)cc2F)c(-c2cn(C)c(=O)c3[nH]ccc23)c1` [Example 298, 4-{2-(2,4-difluorophenoxy)-5-[2-(ethylsulfonyl)propan-2-yl]phenyl}-6-methyl-1,6-dihydro-7H-pyrrolo[2,3-c]pyridin-7-one], for which the Ki came to 2.9 nM in data set [1] and 3.1 nM in data set [3]. Moreover, the half-life at 0.5 μM in data set [2] is 3 min; in data set [4] it was 9 min; in data set [6] it was 47 min. In data set [5], the EC50 amounted to 6.1 nM.
For `CC(=O)Nc1ccc(Oc2ccccc2)c(-c2cn(C)c(=O)c3[nH]ccc23)c1` [Example 6, N-[3-(6-methyl-7-oxo-6,7-dihydro-1H-pyrrolo[2,3-c]pyridin-4-yl)-4-phenoxyphenyl]acetamide], the Ki in data set [1] was 5.3 nM; in data set [3], 5.8 nM. In addition, the half-life at 0.5 μM was determined as 3 min in data set [2], 30 min in data set [4] and 7 min in data set [6]. In addition, in data set [5], the EC50 came to 46 nM.
Consider `Cn1cc(-c2cc(S(N)(=O)=O)cnc2NCC2CC2)c2cc[nH]c2c1=O` [Example 209, 6-[(cyclopropylmethyl)amino]-5-(6-methyl-7-oxo-6,7-dihydro-1H-pyrrolo[2,3-c]pyridin-4-yl)pyridine-3-sulfonamide], for which the values for the Ki in data set [1] and in data set [3] were 4.6 nM and 3.6 nM, respectively. In addition, the half-life at 0.5 μM was 116 min in data set [2], above 120 min in data set [4] and 105 min in data set [6]. Further, the EC50 in data set [5] worked out at 36.8 nM.
For the compound `Cn1cc(-c2cc(C(=O)NC3CCCC3)ccc2Oc2ccccc2)c2cc[nH]c2c1=O` [Example 15, N-cyclopentyl-3-(6-methyl-7-oxo-6,7-dihydro-1H-pyrrolo[2,3-c]pyridin-4-yl)-4-phenoxybenzamide], the Ki in data set [1] came out at 4.2 nM; in data set [3] it was 7.5 nM. Also, the half-life at 0.5 μM was found to be 7 min in data set [2], 10 min in data set [4] and 4 min in data set [6]. Also, the EC50 in data set [5] was determined as 140 nM.
As for `Cn1cc(-c2cc(S(C)(=O)=O)ccc2Oc2ccc(F)cc2F)c2cc(CNC3CCOC3)[nH]c2c1=O` (stereo not drawn) [Example 284, 4-[2-(2,4-difluorophenoxy)-5-(methylsulfonyl)phenyl]-6-methyl-2-[(tetrahydrofuran-3-ylamino)methyl]-1,6-dihydro-7H-pyrrolo[2,3-c]pyridin-7-one], the figures for the Ki in data set [1] and in data set [3] were 18.3 nM and 130 nM, respectively. Also, the results for the half-life at 0.5 μM in data set [2], in data set [4] and in data set [6] were above 120 min, 12 min and 108 min, respectively. Moreover, the EC50 in data set [5] was found to be 131 nM.
In the case of `Cn1cc(-c2cc(-c3ccc(N)nc3)ccc2OCC2CC2)c2cc[nH]c2c1=O` [Example 326, 4-[5-(6-aminopyridin-3-yl)-2-(cyclopropylmethoxy)phenyl]-6-methyl-1,6-dihydro-7H-pyrrolo[2,3-c]pyridin-7-one], the results for the Ki in data set [1] and in data set [3] were 145 nM and 272 nM, respectively. The results for the half-life at 0.5 μM in data set [2], in data set [4] and in data set [6] were 27 min, 112 min and 5 min, respectively. In data set [5], the EC50 amounted to 286 nM.
For `CCOC(=O)N1CCC(Oc2ccc(S(=O)(=O)CC)cc2-c2cn(C)c(=O)c3[nH]ccc23)CC1` [Example 301, ethyl 4-[4-(ethylsulfonyl)-2-(6-methyl-7-oxo-6,7-dihydro-1H-pyrrolo[2,3-c]pyridin-4-yl)phenoxy]piperidine-1-carboxylate], the Ki in data set [1] turned out to be 17.9 nM; in data set [3] it was 15.5 nM. Besides, the half-life at 0.5 μM in data set [2] was determined as 13 min; in data set [4], 20 min; in data set [6] it was 82 min. In data set [5], the EC50 was 42.1 nM.

The values are drawn from patent US9296741B2, “Bromodomain inhibitors” (priority 2012, dated 2016).
